The data set is described as follows: Human HepG2 cell viability assay in 384 well format. The format is toxicity, cell-based. The arrangement: dose 125 nL, time 70.5 hour; concentration not given beside the values. The note with it: HepG2 cells, read-out: Inhibition.
For the molecule `O=C(CN1CCOC(c2ccc(Cl)s2)C1)NCc1ccco1` (stereo not drawn), the cytotoxicity at 70.5 h stood at 17%.

As for `CCn1cnnc1C1CCN(C(=O)COc2ccccc2OC)CC1`, the cytotoxicity at 70.5 h stood at 6.54%.

As for `CNc1oc(-c2cc(S(=O)(=O)N3CCCCCC3)c(C)o2)nc1C#N`, the cytotoxicity at 70.5 h was -20.9%.

As for `CC(=O)N1CCCCC[C@@H]2[C@@H]1[C@H](c1cccc(F)c1)CN2CCC(N)=O`, the cytotoxicity at 70.5 h is -9.36%.

As for `O=C(NCc1ccco1)[C@@]12CCO[C@@H]1CCN(CCN1CCCC1)C2`, the cytotoxicity at 70.5 h stood at 8.62%.

`O=C(c1cnccn1)N1C[C@@H]2CC[C@H](C1)N(C(=O)Cc1ccsc1)C2`: the cytotoxicity at 70.5 h was -1.28%.

Take `CCc1nccn1C1CCCN(C(=O)c2csc(COC)n2)C1` (stereo not drawn): the cytotoxicity at 70.5 h is -17.8%.

On to `CC(C)(C)c1cc(CN2CCOC(CCc3ccccc3)C2)n[nH]1` (stereo not drawn), for which the cytotoxicity at 70.5 h is -9.92%.

Take `CC(Nc1cnn(C)c(=O)c1Cl)c1ccc(F)cc1` (stereo not drawn): the cytotoxicity at 70.5 h was -13.1%.

Turning to `CN(CC(=O)NCCC#N)C(c1ccccc1)c1ccccc1`, the cytotoxicity at 70.5 h is -14.5%.

In the case of `Cc1cnc(N2CCC(OCCN3CCCCC3)C2)nc1C` (stereo not drawn), the cytotoxicity at 70.5 h was -4.38%.

Regarding `CCN(CC)S(=O)(=O)NC1CCN(c2ccc(OC)cc2)CC1`, the cytotoxicity at 70.5 h is -3.82%.

With `O=C(c1ccccc1)N1CC[C@H]2C[C@@H](c3nnc(C4CC4)o3)O[C@@H]2C1`, the cytotoxicity at 70.5 h was -4.88%.

Consider `CC(C)c1nc2c(n1C)CCN(CCCOc1ccc(C#N)cc1)C2`, for which the cytotoxicity at 70.5 h stood at 2.99%.

With `CCc1nc(NCc2ccccn2)c2c(n1)c(C)nn2C`, the cytotoxicity at 70.5 h is 30.9%.

For the molecule `COc1ccc2c(CN3CCCN(Cc4ccncc4)CC3)n[nH]c2c1`, the cytotoxicity at 70.5 h was -1.17%.

In the case of `CCS(=O)(=O)N1CCC(NC(=O)c2ccccc2O)CC1`, the cytotoxicity at 70.5 h is -6.17%.

In the case of `CC(C)(C)C(=O)N1CCC2(CC1)CC(Oc1ccccc1)CO2` (stereo not drawn), the cytotoxicity at 70.5 h amounted to 11.5%.

For `CC(C)C(=O)NCc1ccc(N(C)C)cc1`, the cytotoxicity at 70.5 h is -4.78%.

On to `CCOCc1ccc(NC(=O)NC2CCCn3nc(CC)nc32)cc1` (stereo not drawn), for which the cytotoxicity at 70.5 h is -7.72%.

As for `O=C1CCC2(CCCN(Cc3ccccc3F)C2)N1CC1CC1` (stereo not drawn), the cytotoxicity at 70.5 h is -2.34%.

As to `CN1CCO[C@@H]2CN(S(=O)(=O)c3ccccc3)CC[C@@H]2C1`, the cytotoxicity at 70.5 h was -5%.

Regarding `CC(C)(C)NC(=O)c1ccc(COCC(F)(F)F)o1`, the cytotoxicity at 70.5 h is -4.89%.

For `CSc1nnc(N(CCC#N)CCC#N)s1`, the cytotoxicity at 70.5 h was found to be 6.15%.

In the case of `CC(CNC(=O)Nc1ccc(F)cc1-n1cccc1)N1CCOCC1` (stereo not drawn), the cytotoxicity at 70.5 h was 4.4%.

On to `CCC(NCc1nccn1C)c1nc(C(F)(F)F)cs1` (stereo not drawn), for which the cytotoxicity at 70.5 h is -0.765%.

On to `Cc1cc(CN(C)C(=O)c2cc3c([nH]c2=O)CCCC3=O)no1`, for which the cytotoxicity at 70.5 h was -14.6%.

`O=C(NCCC1CN(Cc2c[nH]cn2)CCO1)Nc1ccccc1` (stereo not drawn): the cytotoxicity at 70.5 h is -8.29%.

As for `COc1cccc(Cn2cc(N3C(=O)CCC3=O)cn2)c1`, the cytotoxicity at 70.5 h turned out to be 3.42%.

With `Cc1cc(-c2nn(C)c(Cl)c2CN2CCOCC2CC(N)=O)no1` (stereo not drawn), the cytotoxicity at 70.5 h was 6.65%.

For `CS(=O)(=O)Cc1ccc(OCc2ccc(F)cc2)cc1`, the cytotoxicity at 70.5 h is 19.8%.

Take `CCc1nc2ccccc2c(=O)n1CC1(O)CCN(C(=O)COC)CC1`: the cytotoxicity at 70.5 h was -2.82%.

For `O=C(c1ccccn1)N1C[C@@H]2CC[C@H](C1)N(C(=O)CCc1cccs1)C2`, the cytotoxicity at 70.5 h was -5.4%.

Take `CCCn1cc(-c2cc(-c3cc(CC)n[nH]3)c(C#N)c(N)n2)c(C)n1`: the cytotoxicity at 70.5 h was -3.18%.

`Cc1noc(C)c1CN1CCc2ncnc(-c3ccoc3)c2CC1`: the cytotoxicity at 70.5 h came out at 15.5%.

As to `CNS(=O)(=O)c1ccc(CN2CCCN(Cc3ccncc3)CC2)cc1`, the cytotoxicity at 70.5 h came out at 16.9%.

On to `CCN(Cc1ccccn1)C1CCN(c2ccccc2)C1=O` (stereo not drawn), for which the cytotoxicity at 70.5 h is -5.06%.

With `CC1CCCN(S(=O)(=O)NCc2ccccc2Cn2cncn2)C1` (stereo not drawn), the cytotoxicity at 70.5 h was -10.6%.

Take `Cc1cc(C)n(CC2CCCCN2C(=O)CCc2ccncc2)n1` (stereo not drawn): the cytotoxicity at 70.5 h was -0.893%.

As for `Cc1nc(CNC(=O)CCCc2cccs2)no1`, the cytotoxicity at 70.5 h is -5.14%.

Regarding `Cc1nc2c(c(NCCc3nc(C)c(Cl)s3)n1)CCNCC2`, the cytotoxicity at 70.5 h is -11%.

With `Cc1cc(C)n2ncc(CN3CCC(Cn4cc(CO)nn4)CC3)c2n1`, the cytotoxicity at 70.5 h was determined as 0.595%.

For the molecule `O=C1[C@H]2CN(c3ncccn3)C[C@H]2CN1Cc1ccncc1`, the cytotoxicity at 70.5 h was found to be 3.36%.

Consider `CN1CCN(C(=O)c2ccnc(N3CCOC(C(F)(F)F)C3)c2)CC1` (stereo not drawn), for which the cytotoxicity at 70.5 h was 19%.

With `CNS(=O)(=O)c1ccc(CNC(=O)Nc2cc(C)on2)s1`, the cytotoxicity at 70.5 h was -6.5%.

Regarding `Cc1n[nH]c(=O)c2c(NC(=O)CN3CCC(C)CC3)oc(C)c12`, the cytotoxicity at 70.5 h is -10.7%.

For `CC(=O)NCC1CCN(c2cc(C(C)C)nc3ccnn23)CC1`, the cytotoxicity at 70.5 h was -9.59%.

Consider `Cc1ccc(C(=O)N2CCCC(c3[nH]ncc3S(C)(=O)=O)C2)s1` (stereo not drawn), for which the cytotoxicity at 70.5 h was found to be 10.6%.

On to `CC(=O)N1CCC(c2nccnc2-c2ccc(F)cc2)CC1`, for which the cytotoxicity at 70.5 h was -0.029%.

With `CC(C)CNC(=O)CNC(=O)NC(c1nccs1)C1CC1` (stereo not drawn), the cytotoxicity at 70.5 h was determined as 4.02%.

With `CC(C)(C)c1nnc(CN2CCOC(Cn3cncn3)C2)o1` (stereo not drawn), the cytotoxicity at 70.5 h is -1.42%.

In the case of `CCOC(=O)CC1CCCCN1C(=O)CCc1cc(Cl)no1` (stereo not drawn), the cytotoxicity at 70.5 h is -1.88%.

On to `COC(=O)c1oc(CNC(C)(C)CO)cc1C`, for which the cytotoxicity at 70.5 h was -5.24%.

Take `COCCC(=O)N1CCCC(c2noc3nc(C)cc(C(F)(F)F)c23)C1` (stereo not drawn): the cytotoxicity at 70.5 h was -5.21%.

With `Cc1ccc(C(=O)N2CCCC(N)CC2)cc1N1CCNC1=O` (stereo not drawn), the cytotoxicity at 70.5 h was -2.27%.

As for `O=C(O)C1CCCN1c1nc(-c2ccc(Cl)cc2)cc(C(F)(F)F)n1` (stereo not drawn), the cytotoxicity at 70.5 h was -3.11%.

For `Cc1cc(CN2CCCC2c2c(C)nn(C)c2Cl)on1` (stereo not drawn), the cytotoxicity at 70.5 h was found to be 0.0053%.

Regarding `CC(C)CN1CCC2(CC1)C(=O)Nc1ccc(C(=O)NC(C)C)cc12`, the cytotoxicity at 70.5 h was -0.986%.

Turning to `Cc1nnc(SCC(=O)Nc2csc3nc(=O)c(C)nn23)s1`, the cytotoxicity at 70.5 h came out at 7.9%.

On to `COCCN(C)CCN1CC2(CCN(C3CCCNC3)CC2)OC1=O` (stereo not drawn), for which the cytotoxicity at 70.5 h was -4.32%.

Consider `Cc1cc(C(=O)N2CCc3ncnc(-c4cnn(C)c4)c3CC2)no1`, for which the cytotoxicity at 70.5 h worked out at 2.85%.

As for `O=C(Nc1ccccn1)c1ccc(F)c(S(=O)(=O)NC2CC2)c1`, the cytotoxicity at 70.5 h was -16.8%.

For `NC(=O)c1ccc(C(=O)N2CCCC(n3ccnc3)C2)s1` (stereo not drawn), the cytotoxicity at 70.5 h was -2.91%.

For the molecule `CC(C)(C)c1coc([C@@H]2COCCN2Cc2ccccn2)n1`, the cytotoxicity at 70.5 h is 2.91%.

`O=C(c1ccco1)N(c1ccc(F)cn1)C1CCOCC1`: the cytotoxicity at 70.5 h was found to be 26.4%.

With `O=C(NCc1ccncc1)N(Cc1ccccc1F)C1CC1`, the cytotoxicity at 70.5 h was 13%.

For the molecule `Cc1nc(C2CCN(S(=O)(=O)c3ccc4c(c3)CCO4)CC2)n[nH]1`, the cytotoxicity at 70.5 h was 0.662%.

For `COCCC(=O)N(C)CCC1=CCN(C)CC1`, the cytotoxicity at 70.5 h amounted to 33%.

Turning to `CCc1ccc(CN(C)C(=O)C(c2ccccc2F)N(C)C)nc1` (stereo not drawn), the cytotoxicity at 70.5 h is -7.7%.

Turning to `CSCC(=O)N(C)Cc1noc(-c2ccccc2)n1`, the cytotoxicity at 70.5 h was -9.48%.

For `COc1cccc(CNCc2ccc(F)c(Cl)c2)c1O`, the cytotoxicity at 70.5 h was 27%.

`N[C@@H]1CCN(Cc2cccc(N3CCOCC3)c2)C[C@H]1O`: the cytotoxicity at 70.5 h is 26.8%.

`O=C(c1ccc(Cl)s1)N1CC(c2nc(-c3ccc[nH]c3=O)no2)C1`: the cytotoxicity at 70.5 h is -8.84%.

For `COc1cccc(CN2C[C@@H]3COC[C@]3(CN3CCOCC3)C2)c1`, the cytotoxicity at 70.5 h was 6.49%.

For `Cc1ccc(-c2n[nH]cc2CNCC2CCc3nnc(C)n3C2)cc1` (stereo not drawn), the cytotoxicity at 70.5 h is -0.696%.

Turning to `CC(C#N)(NC(=O)Cn1cc(I)cn1)C1CC1` (stereo not drawn), the cytotoxicity at 70.5 h worked out at 6.23%.

In the case of `OC1(CN2CCCCC2)CCN(c2ccc(C(F)(F)F)cn2)C1` (stereo not drawn), the cytotoxicity at 70.5 h was -4.17%.

As for `CCC(C(=O)NC1CCN(S(C)(=O)=O)CC1)n1cccn1` (stereo not drawn), the cytotoxicity at 70.5 h is -7.66%.

As for `Cc1nc(CN2CCN(C(C)C(=O)NC3CCCC3)CC2)cs1` (stereo not drawn), the cytotoxicity at 70.5 h was -5.82%.

With `O=C(CCOCC(F)(F)F)N1CCCC1c1noc(C2CC2)n1` (stereo not drawn), the cytotoxicity at 70.5 h was -8.98%.

Turning to `Cc1ccc(C(=O)NCc2ccccc2S(=O)(=O)N(C)CCO)cc1F`, the cytotoxicity at 70.5 h is -1.52%.

Consider `CC(NC(=O)C1=NN(C)C(=O)CC1)c1ccc(Cl)cc1` (stereo not drawn), for which the cytotoxicity at 70.5 h was -110%.

`Cc1nc(O)ccc1C(=O)NCc1ncccc1F`: the cytotoxicity at 70.5 h is -2.33%.

In the case of `CNC(=O)[C@@H]1C[C@@H](NC(=O)Cc2nonc2C)CN1Cc1sccc1C`, the cytotoxicity at 70.5 h was determined as 1.29%.

Regarding `Cc1nc(C)n(CC2CCCCN2CCC(=O)Nc2cc(C)on2)n1` (stereo not drawn), the cytotoxicity at 70.5 h is -3.96%.

For `CCS(=O)(=O)N(C)CC(=O)Nc1ccc(Br)cn1`, the cytotoxicity at 70.5 h turned out to be 4.52%.

With `CC1=N[C@@]2(CC[C@@H]3CN(Cc4ccccc4F)C[C@@H]32)C(=O)N1CC1CC1`, the cytotoxicity at 70.5 h was -0.339%.

Regarding `O=C(O)[C@@H]1CCN(C(=O)Cc2ccccn2)[C@@H]1c1ccc(F)cc1`, the cytotoxicity at 70.5 h was -7.95%.

For `CCn1ncc2c1CCCC2NCc1cscn1` (stereo not drawn), the cytotoxicity at 70.5 h was -5.01%.

In the case of `CN(Cc1ccco1)C(=O)[C@@]12CNC[C@@H]1CN(C1CCCC1)C2`, the cytotoxicity at 70.5 h is -23%.

For the molecule `CC(C(=O)NCCOc1cccc(Cl)c1)n1cncn1` (stereo not drawn), the cytotoxicity at 70.5 h is -9.41%.

Regarding `O=S(=O)(NCc1cn2ccccc2n1)N1CCOCC1`, the cytotoxicity at 70.5 h was -12.1%.

`CCN(C)S(=O)(=O)N1C[C@@H]2CC[C@H](C1)N(Cc1cscn1)C2=O`: the cytotoxicity at 70.5 h is -8.95%.

On to `O=C(NCc1ccc(F)cc1F)C(c1cccnc1)N1CCOCC1` (stereo not drawn), for which the cytotoxicity at 70.5 h is -0.235%.

As for `Cc1cc(-c2cnc(NC3CCCC3)nc2-c2ccoc2)on1`, the cytotoxicity at 70.5 h was -2.38%.

`O=C(NCc1cccnc1)[C@@H]1C[C@@H]2CCN(c3ncc(F)cn3)C[C@@H]2O1`: the cytotoxicity at 70.5 h is -12.2%.

Regarding `O=C(c1cnccn1)N1CCN(Cc2cccnc2)c2ncccc2C1`, the cytotoxicity at 70.5 h is -8.24%.

Regarding `Cc1c[nH]nc1C1CCCCN1C(=O)CCn1nccc1C` (stereo not drawn), the cytotoxicity at 70.5 h came out at 11.5%.

The values are drawn from ChEMBL document CHEMBL3507680, “University of Dundee, Gates Library screen for HepG2 cell viability”.
